Measurements as given in ChEMBL document CHEMBL1152625, “Pochonicine, a polyhydroxylated pyrrolizidine alkaloid from fungus Pochonia suchlasporia var. suchlasporia TAMA 87 as a potent beta-N-acetylglucosaminidase inhibitor” (Bioorg Med Chem, 2009).
Calls of active or inactive are those of the source. No cut-off for these calls is given here.

How the values were obtained:
[1] = Competitive inhibition of bovine kidney beta-N-acetylglucosaminidase by pNP-GlcNAc substrate hydrolysis assay; design: species or system Bos taurus
[2] = Competitive inhibition of jack bean beta-N-acetylglucosaminidase by pNP-GlcNAc substrate hydrolysis assay; design: species or system Canavalia ensiformis
[3] = Inhibition of Aspergillus oryzae beta-N-acetylglucosaminidase by pNP-GlcNAc substrate hydrolysis assay
[4] = Inhibition of Penicillium oxalicum beta-N-acetylglucosaminidase by pNP-GlcNAc substrate hydrolysis assay
[5] = Inhibition of bovine kidney beta-N-acetylglucosaminidase by pNP-GlcNAc substrate hydrolysis assay; design: species or system Bos taurus
[6] = Competitive inhibition of Spodoptera litura beta-N-acetylglucosaminidase by pNP-GlcNAc substrate hydrolysis assay
[7] = Inhibition of Spodoptera litura beta-N-acetylglucosaminidase by pNP-GlcNAc substrate hydrolysis assay
[8] = Competitive inhibition of Aspergillus oryzae beta-N-acetylglucosaminidase by pNP-GlcNAc substrate hydrolysis assay
[9] = Competitive inhibition of Penicillium oxalicum beta-N-acetylglucosaminidase by pNP-GlcNAc substrate hydrolysis assay
[10] = Inhibition of jack bean beta-N-acetylglucosaminidase by pNP-GlcNAc substrate hydrolysis assay; design: species or system Canavalia ensiformis
Saccharomyces cerevisiae = assay: Inhibition of yeast alpha-glucosidase at 2.38 uM by […] substrate hydrolysis assay
[11] = Noncompetitive inhibition of Aspergillus oryzae beta-N-acetylglucosaminidase by pNP-GlcNAc substrate hydrolysis assay
[12] = Mixed type inhibition of Penicillium oxalicum beta-N-acetylglucosaminidase by pNP-GlcNAc substrate hydrolysis assay
[13] = Noncompetitive inhibition of bovine kidney beta-N-acetylglucosaminidase by pNP-GlcNAc substrate hydrolysis assay; design: species or system Bos taurus
Bacillus sp. = assay: Inhibition of Bacillus sp. chitinase at 209 uM by pNP-GlcNAc2 substrate hydrolysis assay
Prunus dulcis = assay: Inhibition of almond beta-glucosidase at 2.38 uM by pNP-beta-Glc substrate hydrolysis assay

| SMILES | Ki [1] | Ki [2] | IC50 [3] | IC50 [4] | IC50 [5] | Ki [6] | IC50 [7] | Ki [8] | Ki [9] | Ki [10] | Ki [5] | Activity (Saccharomyces cerevisiae) | Ki [11] | Ki [12] | Ki [13] | IC50 [10] | Activity (Bacillus sp.) | Activity (Prunus dulcis) |
| --- | --- | --- | --- | --- | --- | --- | --- | --- | --- | --- | --- | --- | --- | --- | --- | --- | --- | --- |
| CC(=O)N[C@H]1c2nc(CC(=O)O)cn2[C@H](CO)[C@H](O)[C@@H]1O [NAGSTATIN] | 1.64 nM | 1.41 nM | 10.6 nM | 60.6 nM | 1.71 nM | 1.1 nM | 5.85 nM | 9.69 nM | 8.11 nM | – | – | – | – | – | – | – | – | – |
| CC(=O)NC[C@H]1N[C@H](CO)[C@@H](O)[C@@H]1O | – | – | – | – | – | – | – | – | – | 1900 nM | 9800 nM | – | – | – | – | – | – | – |
| CC(=O)NC[C@H]1[C@H](O)[C@H](O)[C@@H]2[C@H](O)C[C@@H](CO)N21 (relative stereo) [POCHONICINE] | – | 0.162 nM | 20.3 nM | 42.1 nM | 1.06 nM | 1.77 nM | 5.96 nM | – | – | – | – | inactive | 141 nM | 13.2 nM | 1.04 nM | 0.288 nM | inactive | inactive |
| CC(=O)NC[C@@H]1N[C@H](CO)[C@@H](O)[C@@H]1O | – | – | – | – | – | – | – | – | – | 3600 nM | 68600 nM | – | – | – | – | – | – | – |
